These results are taken from US6713280B1, “Enhancement of peptide cellular uptake” (Thomas Jefferson University, priority 1999, dated 2004).

One assay concerns the target Bcl-2 protein (Homo sapiens, UniProt P10415). Description: Fluorescence polarization competition binding against Flu-SEQ ID NO:30 (BH3 peptides). Particulars: FIG. 3; for relative competition to Flu-SEQ ID NO:30 binding: comparison among BH3 peptides; for inhibition of Bcl-2 binding of Flu-SEQ ID NO:30: competition curve. In general terms: In fluorescence polarisation assays a small probe gives low polarisation when free and higher when bound to something large.

The test system of assay [1] is HL-60 cell line (parent line). Particulars: 50 μM, parent HL-60 line; cited from earlier work.
Assay [2] has as its system Bcl-2-transfected HL-60 line. The following applies: 50 μM (same concentration); cited from earlier work.
In assay [3] the test system is HL-60 cells transfected with Bcl-2 to overexpress Bcl-2. Description: DNA fragmentation apoptosis assay. It counts as cell-based, human. The following applies: 50 μM, 2 hours, Bcl-2-transfected HL-60 cells, FIG. 6.
A further assay concerns the target GST-Bcl-2 protein (Homo sapiens, UniProt P10415). Description: Fluorescence polarization competition binding assay of decyl-SEQ ID NO:56 to GST-Bcl-2. The method, then: The binding equation proposed by Weinhold et al., J. Am. Chem. Soc. 114:9270-9275, 1992, was used to derive the dissociation constant KD of an inhibitor from petition inhibition curve, [formula]
The Ec50 for the Bcl-2 binding of decyl-SEQ ID NO:56 was 0.13 μM, indicating strong binding.
The binding of the peptide conjugate decyl-SEQ ID NO:56 to the Bcl-2 protein was assayed by the following competition assay. […] The following micromolar concentrations of decyl-K1285 were then incubated with the mixture for 30 minutes at 37° C. (0.005, 0.01, 0.02, 0.04 0.08 0.16 and 0.32).

Residues, ends and D or L forms follow the SMILES beside them. *: point of attachment. Decanoyl = CCCCCCCCCC(=O)*

Sequence of Bcl-2 protein (P10415 whole entry): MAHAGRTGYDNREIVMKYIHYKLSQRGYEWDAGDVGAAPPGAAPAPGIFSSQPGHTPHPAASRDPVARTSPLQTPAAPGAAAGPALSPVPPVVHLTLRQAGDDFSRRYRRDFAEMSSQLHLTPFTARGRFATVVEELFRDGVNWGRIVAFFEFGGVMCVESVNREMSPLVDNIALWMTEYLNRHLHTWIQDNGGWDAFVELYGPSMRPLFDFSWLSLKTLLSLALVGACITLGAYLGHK
Sequence of GST-Bcl-2 protein (P10415 1-205 limits assumed): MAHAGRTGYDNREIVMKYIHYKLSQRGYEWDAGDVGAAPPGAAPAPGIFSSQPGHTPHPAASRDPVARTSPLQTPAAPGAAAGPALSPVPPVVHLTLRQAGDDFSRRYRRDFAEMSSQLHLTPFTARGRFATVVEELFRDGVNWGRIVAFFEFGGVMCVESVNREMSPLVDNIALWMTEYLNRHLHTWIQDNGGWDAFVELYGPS

In the case of KKLSECLKRIGDELDS [SEQ ID NO:32], on Bcl-2 protein, the “relative competition to Flu-SEQ ID NO:30 binding” value was “weaker activity” and the “inhibition of Bcl-2 binding of Flu-SEQ ID NO:30” value (from here on “inhibition … of Flu-SEQ ID NO:30”) is recorded as “clear dose-dependent inhibition”.

Consider “GQVGRQMIIGDDINR (GQVGRQAAIIGDDINR) [SEQ ID NO:58, reference compound]”, for which the “inhibition … of Flu-SEQ ID NO:30” value in the assay with Bcl-2 protein was “no significant effect”. In the case of `COc1cc([C@@H]2c3cc4c(cc3[C@@H](O[C@@H]3O[C@@H]5CO[C@@H](C)O[C@H]5[C@H](O)[C@H]3O)[C@H]3COC(=O)[C@H]23)OCO4)cc(OC)c1O` [etoposide], the “sensitivity of cells to the drug” value in assay [1] is “sensitive”; in assay [2], “resistant”. Take `CCCCCCCCCC(=O)O` [decanoic acid, reference compound]: the “DNA fragmentation (marker of apoptosis)” value in assay [3] is listed as “observed in the decyl-SEQ ID NO:56-treated cells only”. One may read the EC50 as the concentration giving half of the maximal effect. Turning to `CCCCCCCCCC(=O)N[C@@H](CCCCN)C(=O)N[C@@H](CC(N)=O)C(=O)N[C@@H](CC(C)C)C(=O)N[C@@H](Cc1c[nH]c2ccccc12)C(=O)N[C@@H](C)C(=O)N[C@@H](C)C(=O)N[C@@H](CCC(N)=O)C(=O)N[C@@H](CCCNC(=N)N)C(=O)N[C@@H](Cc1ccc(O)cc1)C(=O)NCC(=O)N[C@@H](CCCNC(=N)N)C(=O)N[C@@H](CCC(=O)O)C(=O)N[C@@H](CC(C)C)C(=O)N[C@@H](CCCNC(=N)N)C(=O)N[C@@H](CCCNC(=N)N)C(=O)N[C@@H](CCSC)C(=O)N[C@@H](CO)C(=O)N[C@@H](CC(=O)O)C(=O)N[C@@H](CCC(=O)O)C(=O)N[C@@H](Cc1ccccc1)C(=O)N[C@@H](CCC(=O)O)C(=O)NCC(=O)N[C@@H](CO)C(=O)N[C@@H](Cc1ccccc1)C(=O)N[C@@H](CCCCN)C(=O)NCC(=O)N[C@@H](CC(C)C)C(=O)O` [decyl-SEQ ID NO:56] (Decanoyl-KNLWAAQRYGRELRRMSDEFEGSFKGL-OH; C-terminus assumed), the “DNA fragmentation (marker of apoptosis)” value in assay [3] is reported as “DNA fragmentation was observed”. Also, it took 130 nM to reach a half-maximal effect at GST-Bcl-2 protein (EC50). Regarding “NLWAAQRYGRELRRMSDEFEGSFKGL [SEQ ID NO:1]”, in the assay with Bcl-2 protein, the “relative competition to Flu-SEQ ID NO:30 binding” value is listed as “strongest competition” and the “inhibition … of Flu-SEQ ID NO:30” value was “clear dose-dependent inhibition”. In the case of “KNLWAAQRYGRELRRMSDEFEGSFKGL [SEQ ID NO:56]”, in assay [3], the “DNA fragmentation (marker of apoptosis)” value is recorded as “observed in the decyl-SEQ ID NO:56-treated cells only”.
